Earlier results in publication PMC8491563 (Journal of controlled release : official journal of the …, 2020).

System: CCR2
Settings: in conjunction with nab-paclitaxel/gemcitabine, 21 treated patients

O=C(NCC(=O)N1CC[C@H](N[C@H]2CC[C@@](O)(c3ccc(-c4ncccn4)cn3)CC2)C1)c1cccc(C(F)(F)F)c1 [PF-04136309]
patients responding with a reduction in tumor size compared to the baseline: 23.8%
